Drawing on patent US20260022114A1, “N-(5-SUBSTITUTED-[(1,3,4-THIADIAZOLYL) OR (1,3-THIAZOLYL)](SUBSTITUTED)CARBOXAMIDE COMPOUNDS, PHARMACEUTICAL COMPOSITIONS, AND METHODS OF PREPARING THE AMIDE COMPOUNDS AND OF THEIR USE” (Repare Therapeutics Inc., priority 2022, published 2026), this text covers IC50 for 57 compounds.

Where only a bound is given, the exact number is not on record here.

Chain of PolQ ATPase enzyme (1-894) (O75417 1-894): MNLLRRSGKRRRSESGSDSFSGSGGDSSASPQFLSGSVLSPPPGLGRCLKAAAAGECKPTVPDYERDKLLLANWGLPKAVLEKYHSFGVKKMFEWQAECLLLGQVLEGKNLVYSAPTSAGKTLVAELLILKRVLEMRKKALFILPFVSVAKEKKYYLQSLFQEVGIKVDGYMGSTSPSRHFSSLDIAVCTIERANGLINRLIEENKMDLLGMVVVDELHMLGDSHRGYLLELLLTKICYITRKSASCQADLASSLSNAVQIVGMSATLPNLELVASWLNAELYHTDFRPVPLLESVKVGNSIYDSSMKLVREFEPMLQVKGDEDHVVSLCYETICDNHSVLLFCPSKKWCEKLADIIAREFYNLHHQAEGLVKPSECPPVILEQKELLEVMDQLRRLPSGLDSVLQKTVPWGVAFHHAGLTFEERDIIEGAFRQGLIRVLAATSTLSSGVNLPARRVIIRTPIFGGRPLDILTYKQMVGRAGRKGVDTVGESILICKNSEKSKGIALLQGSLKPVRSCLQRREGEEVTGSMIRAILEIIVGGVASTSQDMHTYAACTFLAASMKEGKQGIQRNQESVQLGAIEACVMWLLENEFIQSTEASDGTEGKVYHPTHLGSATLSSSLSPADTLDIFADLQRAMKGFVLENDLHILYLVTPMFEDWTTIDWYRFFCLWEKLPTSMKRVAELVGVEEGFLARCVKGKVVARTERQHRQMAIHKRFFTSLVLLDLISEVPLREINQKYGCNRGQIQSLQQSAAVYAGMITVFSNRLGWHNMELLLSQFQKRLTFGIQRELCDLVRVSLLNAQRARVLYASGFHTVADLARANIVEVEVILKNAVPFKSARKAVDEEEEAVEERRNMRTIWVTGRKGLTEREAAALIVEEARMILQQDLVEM

The assay deals with PolQ ATPase enzyme (1-894) (Homo sapiens (Human), UniProt O75417). Description: Polθ ATPase enzymatic assay (0.5 nM enzyme concentration), ADP-Glo. Format: biochemical. The following applies: 0.5 nM PolQ ATPase enzyme (1-894); average IC50. As to the method:
PolQ ATPase enzyme (1-894) at 0.5 nM is incubated with a 10-point concentration response of inhibitors for 15 min at rt in the following buffer: 50 mM Tris Cl pH 7.5, 10% glycerol, 5 mM DTT, 10 mM MgCl2, 0.1 mg/ml BSA. Following pre-incubation with inhibitors, DNA (Fork C) at 20 nM and ATP at 100 μM are added to start the reaction. Enzymatic reaction proceeds at rt for 180 min. ATP consumption is measured using the ADP-Glo assay from Promega. Luminescence is read on the Envision and IC50 are determined using the variable slope 4-parameters equation.
Oligos are annealed by heating at 95° C. for 5 min in the following buffer (10 mM Tris-HCl PH7.5, 50 mM NaCl, 1 mM EDTA) and cooled to rt. […]
Regarding `C#C[C@H]1CC1c1nnc(NC(=O)c2cnc(N3CCN(C(=O)OC)C4(CC4)C3=O)cc2-c2cc(C(F)F)ncc2OC)s1` (single isomer, unassigned) [Compound 636], the IC50 was determined as 0.33 nM. To `COc1cnc(C(F)F)cc1-c1cc(-n2ncc(C)cc2=O)ncc1C(=O)Nc1nnc(C2C[C@@H]2C)s1` (single isomer, unassigned) [Compound 642] belongs 0.72 nM; to `COc1ccc(C(F)(F)F)cc1-c1cnccc1C(=O)Nc1nnc(C2C[C@H]2c2ccc(C#N)cc2)s1` (stereo partly drawn) [Compound 30], 0.76 nM; to `COc1cnc(Cl)cc1-c1cnccc1C(=O)Nc1nnc(C2C[C@H]2c2ccc(OC(F)F)cc2)s1` (stereo partly drawn) [Compound 62], 0.36 nM. To `COc1cnc(C(F)(F)F)cc1-c1cnccc1C(=O)Nc1nnc(C2C[C@H]2c2ccc(C#N)cc2)s1` (stereo partly drawn) [Compound 90] belongs 0.8 nM; to `CNC(=O)Cn1cc(-c2cc(C(F)(F)F)ccc2OC)c(C(=O)Nc2nnc(C3C[C@H]3c3ccc(C#N)cc3)s2)cc1=O` (stereo partly drawn) [Compound 92], 0.25 nM; to `Cc1nnc(Cn2cc(-c3cc(C(F)F)ccc3C)c(C(=O)Nc3ncc(C#CC4CC4)s3)cc2=O)o1` [Compound 116], less than 0.25 nM. To `COc1cnc(C(F)F)cc1-c1cc(N(C)c2nnc(C)o2)ccc1C(=O)Nc1nnc(C#CC2CC2)s1` [Compound 118, N-(5-(cyclopropylethynyl)-1,3,4-thiadiazol-2-yl)-2-(2-(difluoromethyl)-5-methoxypyridin-4-yl)-4-(methyl (5-methyl-1,3,4-oxadiazol-2-yl)amino)benzamide] belongs 0.99 nM; to `C#C[C@@H]1CC1c1nnc(NC(=O)c2ccc(N3CCOCC3=O)cc2-c2cc(C(F)F)ncc2OC)s1` (stereo partly drawn) [Compound 177], 0.39 nM. In turn, `C#C[C@H]1CC1c1nnc(NC(=O)c2cnc(CC#N)cc2-c2cc(C(F)F)ncc2OC)s1` (stereo partly drawn) [Compound 190] showed an IC50 of 5.8 nM.

As to `Cc1nnc(Cn2cc(-c3cc(C(F)F)ccc3Cl)c(C(=O)Nc3nc(C)c(C#CC4CC4)s3)cc2=O)o1` [Compound 199], the IC50 amounted to 5.8 nM. To `COc1cnc(C(F)F)cc1-c1cc(N2CCN(C)CC2=O)ccc1C(=O)Nc1ncc(C#CC2CC2)s1` [Compound 217] belongs 1.9 nM; to `COc1cnc(C(F)F)cc1-c1cc(CC2CCOCC2)ncc1C(=O)Nc1nnc(C#CC2CC2)s1` [Compound 267], 6.4 nM; to `COc1cnc(Cl)cc1-c1cnccc1C(=O)Nc1nnc(C2C[C@H]2c2ccc(C#N)c(C)c2)s1` (stereo partly drawn) [Compound 287], 0.93 nM. Regarding `COc1cnc(C(F)F)cc1-c1c(C(=O)Nc2nnc(C#CC3CC3)s2)ccc(-c2ccn(C)n2)c1F` [Compound 385], half-maximal inhibition (IC50) was put at 0.87 nM. The value for `COc1cnc(C(F)F)cc1-c1nc(-c2nnc(C)o2)ccc1C(=O)Nc1ncc(C#CC2CC2)s1` [Compound 392] was more than 100 nM; that for `COc1cnc(C(F)F)cc1-c1cc(-n2cc(C)c(C)cc2=O)ncc1C(=O)Nc1nnc(C#CC2CC2)s1` [Compound 476] was less than 0.25 nM. To `Cn1ccc(C2C=C(c3cc(C(F)(F)F)ncc3Cl)C(C(=O)Nc3ncc(C#CC4CC4)s3)=CC2=O)n1` (stereo not drawn) [Compound 479] belongs 7.4 nM. Compound `COc1cnc(C(F)(F)F)nc1-c1cc(CC#N)ccc1C(=O)Nc1nnc(C#CC2CC2)s1` [Compound 482] yielded an IC50 of 0.73 nM. Compound `COc1cnc(C(F)F)cc1-c1cc(-c2cccn(C)c2=O)ncc1C(=O)Nc1nnc(C#CC2CC2)s1` [Compound 483] registered an IC50 of less than 0.25 nM. The value for `COc1cnc(C(F)F)cc1-c1cc(-c2ccc[nH]c2=O)ncc1C(=O)Nc1nnc(C#CC2CC2)s1` [Compound 484] was 0.32 nM. The value for `COc1cnc(C(F)F)cc1-c1cc(N2C[C@H](C)OCC2=O)ncc1C(=O)Nc1nnc(C#CC2CC2)s1` [Compound 486] was 0.36 nM; that for `COc1cnc(C(F)F)cc1-c1cc(-n2ccc(C)cc2=O)ncc1C(=O)Nc1nnc(C#CC2CCOCC2)s1` [Compound 487] was less than 0.25 nM. As for `COc1cnc(C(F)F)cc1-c1cc(-n2ccc(N)cc2=O)ncc1C(=O)Nc1nnc(C#CC2CC2)s1` [Compound 488], the IC50 was less than 0.25 nM.

Take `COc1cc(C)ncc1-c1cc(-c2cc(C(F)F)ncc2OC)c(C(=O)Nc2nnc(C#CC3CC3)s2)cn1` [Compound 489]: 0.4 nM corresponded to half-maximal inhibition (IC50). To `COc1cnc(C(F)F)cc1-c1cc(-n2ccc(CO)cc2=O)ncc1C(=O)Nc1nnc(C#CC2CC2)s1` [Compound 490] belongs less than 0.25 nM; to `COc1cnc(C(F)F)cc1-c1cc(-n2cccc(C(C)=O)c2=O)ncc1C(=O)Nc1nnc(C#CC2CC2)s1` [Compound 491], less than 0.25 nM; to `COc1cnc(C(F)F)cc1-c1cc(-n2ccc(C(N)=O)cc2=O)ncc1C(=O)Nc1nnc(C#CC2CC2)s1` [Compound 492], less than 0.25 nM. The value for `COc1cnc(C(F)F)cc1-c1cc(-n2ccc(C#N)cc2=O)ncc1C(=O)Nc1nnc(C#CC2CC2)s1` [Compound 493] was less than 0.25 nM; that for `COc1cnc(C(F)F)cc1-c1cc(-n2cccc(C)c2=O)ncc1C(=O)Nc1nnc(C#CC2CCOCC2)s1` [Compound 494] was less than 0.25 nM. In turn, `COc1cnc(C(F)F)cc1-c1cc(-n2ccc(C(=O)O)cc2=O)ncc1C(=O)Nc1nnc(C#CC2CC2)s1` [Compound 495] returned a half-inhibitory concentration (IC50) of 0.33 nM. Compound `COC(=O)c1ccn(-c2cc(-c3cc(C(F)F)ncc3OC)c(C(=O)Nc3nnc(C#CC4CC4)s3)cn2)c(=O)c1` [Compound 496] displayed an IC50 of less than 0.25 nM.

`COC(=O)C1CCN(c2cc(-c3cc(C(F)F)ncc3OC)c(C(=O)Nc3nnc(C#CC4CC4)s3)cn2)C(=O)C1` (stereo not drawn) [Compound 497] registered an IC50 of 0.45 nM. Compound `COc1cnc(C(F)F)cc1-c1cc(-c2ccc(C)nc2OC)ncc1C(=O)Nc1nnc(C#CC2CC2)s1` [Compound 501] displayed an IC50 of 0.93 nM. The value for `COc1cnc(C(F)F)cc1-c1cc(N2C[C@@H](C)OCC2=O)ncc1C(=O)Nc1nnc(C#CC2CC2)s1` [Compound 502] was 2.4 nM. The value for `[2H]C([2H])([2H])N1CCN(c2cc(-c3cc(C(F)F)ncc3OC)c(C(=O)Nc3nnc(C#CC4CC4)s3)cn2)C(=O)C12CC2` [Compound 503] was less than 0.25 nM; that for `COC(=O)N1CCN(c2cc(-c3cc(C(F)F)ncc3OC)c(C(=O)Nc3nnc(C#CC4CC4)s3)cn2)C(=O)C12CC2` [Compound 505] was less than 0.25 nM; that for `COc1cnc(C(F)F)cc1-c1cc(-n2ccc(C3CCOCC3)cc2=O)ncc1C(=O)Nc1nnc(C#CC2CC2)s1` [Compound 506] was less than 0.25 nM. The value for `COc1cnc(C(F)F)cc1-c1cc(Cn2ccccc2=O)ncc1C(=O)Nc1nnc(C#CC2CC2)s1` [Compound 507] was 1.5 nM.

The compound `COc1cnc(C(F)F)cc1-c1cc(N2CCN(CC#N)C3(CC3)C2=O)ncc1C(=O)Nc1nnc(C#CC2CC2)s1` [Compound 508] showed an IC50 of 1.2 nM. The value for `COc1cnc(C(F)F)cc1-c1cc(-n2ccc(B(O)O)cc2=O)ncc1C(=O)Nc1nnc(C#CC2CC2)s1` [Compound 509] was 1.7 nM; that for `COc1cnc(C(F)F)cc1-c1cc(N2CCN(C3CC3)C3(CC3)C2=O)ncc1C(=O)Nc1nnc(C#CC2CC2)s1` [Compound 510] was 0.92 nM; that for `COc1cnc(C(F)F)cc1-c1cc(-c2ccc(C)cc2)ncc1C(=O)Nc1nnc(C#CC2CC2)s1` [Compound 513] was 3.2 nM. The value for `COc1cnc(C(F)F)cc1-c1cc(N2CCN(CC(F)(F)F)C3(CC3)C2=O)ncc1C(=O)Nc1nnc(C#CC2CC2)s1` [Compound 515] was 2.7 nM; that for `COc1cnc(C(F)F)cc1-c1cc(N2CCN(C(=O)C(C)(C)C)C3(CC3)C2=O)ncc1C(=O)Nc1nnc(C#CC2CC2)s1` [Compound 516] was 0.39 nM; that for `C#Cc1nnc(NC(=O)c2cnc(-n3ccc(C)cc3=O)cc2-c2cc(C(F)F)ncc2OC)s1` [Compound 518] was 1.4 nM. The value for `COc1cnc(C(F)F)cc1-c1cc(-c2ccn(C)c(=O)c2)ncc1C(=O)Nc1nnc(C#CC2CC2)s1` [Compound 519] was 12 nM. For the compound `COc1cnc(C(F)F)cc1-c1cc(N2CCN(C=O)C3(CC3)C2=O)ncc1C(=O)Nc1nnc(C#CC2CC2)s1` [Compound 520], 0.27 nM corresponded to half-maximal inhibition (IC50). To `COc1cnc(C(F)F)cc1-c1cc(N2CCCCS2(=O)=O)ncc1C(=O)Nc1nnc(C#CC2CC2)s1` [Compound 521] belongs 15 nM; to `COc1cnc(C(F)F)cc1-c1cc(-n2ccc(N3CCOCC3)cc2=O)ncc1C(=O)Nc1nnc(C#CC2CC2)s1` [Compound 522], less than 0.25 nM; to `COc1cnc(C(F)F)cc1-c1cc(-c2ccc(=O)n(C)c2)ncc1C(=O)Nc1nnc(C#CC2CC2)s1` [Compound 524], 2.3 nM. To `COc1cncc(-c2cc(-c3cc(C(F)F)ncc3OC)c(C(=O)Nc3nnc(C#CC4CC4)s3)cn2)c1` [Compound 525] belongs 1.3 nM; to `COc1cnc(C(F)F)cc1-c1cc(Oc2cc(N3CCOCC3)ccn2)ncc1C(=O)Nc1nnc(C#CC2CC2)s1` [Compound 526], 1.5 nM; to `COc1cnc(C(F)F)cc1-c1cc(C#CC(C)(C)N2CCOCC2)ncc1C(=O)Nc1nnc(C#CC2CC2)s1` [Compound 528], 0.44 nM. The value for `COc1cnc(C(F)F)cc1-c1cc(C#CCN2C[C@@H](C)O[C@@H](C)C2)ncc1C(=O)Nc1nnc(C#CC2CC2)s1` [Compound 529] was 0.59 nM; that for `COc1cnc(C(F)F)cc1-c1cc(-n2ccncc2=O)ncc1C(=O)Nc1nnc(C#CC2CC2)s1` [Compound 531] was 0.27 nM.

Turning to `COc1cnc(C(F)F)cc1-c1cc(-n2ccc(C)cc2=O)ncc1C(=O)Nc1nnc(C2CC2)s1` [Compound 532], 1.7 nM corresponded to half-maximal inhibition (IC50).

In general, IC50 refers to the concentration at which inhibition is half-maximal.
